Patent US20080096897A1, “5-(1,1'Biphenyl)-4-Yl-5-(4-(4-Aminoacylphenyl)-Piperazin)-1-Yl-Pyrimidine-2,4,6,-Trione Derivatives, As Inhibitors Of Zinc Metallondopeptidases, Their Preparation And Use” (priority 2004, published 2008)
Like-named read-outs stand apart in the source and are kept apart here.

How the values were obtained:
[1] = biological target: T1, recombinant human MMP2 (Homo sapiens, UniProt P08253); assay: MMP inhibition on isolated enzymes, fluorigenic peptide substrate; format: biochemical
T1 sequence (P08253 110-660): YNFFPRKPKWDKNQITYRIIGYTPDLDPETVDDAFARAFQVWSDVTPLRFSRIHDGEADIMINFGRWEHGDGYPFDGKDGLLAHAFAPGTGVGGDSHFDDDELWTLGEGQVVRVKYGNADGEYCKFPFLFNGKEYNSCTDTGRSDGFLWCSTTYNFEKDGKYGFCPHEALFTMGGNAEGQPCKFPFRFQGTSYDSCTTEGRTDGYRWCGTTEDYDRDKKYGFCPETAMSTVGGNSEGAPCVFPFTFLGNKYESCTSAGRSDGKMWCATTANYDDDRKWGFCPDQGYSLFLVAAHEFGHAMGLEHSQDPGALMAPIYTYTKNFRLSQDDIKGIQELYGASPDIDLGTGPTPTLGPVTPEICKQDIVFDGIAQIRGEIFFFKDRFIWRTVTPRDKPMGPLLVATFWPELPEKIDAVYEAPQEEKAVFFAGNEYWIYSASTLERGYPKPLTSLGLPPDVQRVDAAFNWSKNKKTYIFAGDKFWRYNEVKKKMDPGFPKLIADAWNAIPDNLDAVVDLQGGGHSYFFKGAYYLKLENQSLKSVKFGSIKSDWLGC
Excerpt: (§1) The matrix metalloproteinase (MMP) inhibitory activity has been evaluated in a classical biochemical assay using fluorigenic peptide substrates. Briefly, a peptide bearing 1) a fluorescent group and 2) a quenching group bound to another amino acid of the peptide is submitted to the proteolytic action of an MMP. The cleavage of peptide bounds due to the MMP results in a dequenching of the fluorescent group. There is a direct relationship between the observed fluorescence and the activity of the enzyme. The MMP inhibiting activity of a given substance can then be assessed using this assay.
(§2) The compounds of the present invention have been assayed using this assay design with recombinant human MMP2, MMP14 and MMP16 and the peptide ZGly-Gly-ArgAMC, which is a well-known, commercially available substrate of MMPs.
(§3) The following IC50 values (inhibitor concentration required to inhibit 50% of the enzyme) have been obtained with the compounds prepared according to examples 2 to 5 and compared to a product of the state of the art, better known as Ro 28-2653. Ro 28-2653 is included in claim 1 of WO 01/25217.

[2] = biological target: recombinant human MMP14 (Homo sapiens, UniProt P50281); assay: as above; format: biochemical
Excerpt: as §1, §2, §3

[3] = biological target: recombinant human MMP16 (Homo sapiens, UniProt P51512); assay: as above; format: biochemical
recombinant human MMP16, sequence (P51512 120-607): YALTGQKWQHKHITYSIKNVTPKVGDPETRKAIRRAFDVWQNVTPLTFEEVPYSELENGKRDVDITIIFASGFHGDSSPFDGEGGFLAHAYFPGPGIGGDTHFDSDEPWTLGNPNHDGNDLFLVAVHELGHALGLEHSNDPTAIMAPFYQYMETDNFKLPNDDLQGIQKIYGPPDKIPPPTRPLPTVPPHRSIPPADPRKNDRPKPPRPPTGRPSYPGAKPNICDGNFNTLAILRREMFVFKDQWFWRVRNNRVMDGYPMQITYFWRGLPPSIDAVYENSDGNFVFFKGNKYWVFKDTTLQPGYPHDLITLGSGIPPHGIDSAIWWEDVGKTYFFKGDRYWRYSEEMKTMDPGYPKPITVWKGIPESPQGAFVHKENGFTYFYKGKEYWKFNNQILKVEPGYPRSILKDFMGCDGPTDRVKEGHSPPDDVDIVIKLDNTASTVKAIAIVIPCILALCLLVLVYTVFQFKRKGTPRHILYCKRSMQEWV
Excerpt: as §1, §2, §3

[4] = tested on: capillary vessel outgrowth from aorta rings; assay: aorta ring angiogenesis assay; format: cell-based; details: 10 μM in culture medium, rat aorta rings in collagen, 6-9 days
Procedure: Compound 5-(1,1′-biphenyl)-4-yl-5-{4-[4-(2,5-dioxopyrrolidin-1-yl)phenyl]piperazin-1-yl}pyrimidine-2,4,6(1H,3H,5H)-trione prepared according to example 4 has also been assayed in an aorta ring angiogenesis assay.
Briefly, in the aorta ring assay, fresh slices (ring) of aorta dissected from rat were embedded in collagen1 and then cultivated in Petri dishes after addition of culture medium (n=6). […] The effect of the compound of example 4 (10 μM) on angiogenesis was evaluated by its potency to stimulate or to inhibit the outgrowth of the capillary vessels when it was added to the culture medium (n=6).

SMILES	IC50 ([1]; recombinant human MMP2, substrate ZGly-Gly-ArgAMC, read-out: IC50 (nM) values on isolated enzymes MMP-2) [nM]	IC50 ([2]; recombinant human MMP14, substrate ZGly-Gly-ArgAMC, read-out: IC50 (nM) values on isolated enzymes MMP-14) [nM]	IC50 ([3]; recombinant human MMP16, substrate ZGly-Gly-ArgAMC, read-out: IC50 (nM) values on isolated enzymes MMP-16) [nM]	IC50 [1] [nM]	IC50 [2] [nM]	IC50 [3] [nM]	effect on capillary vessel outgrowth (angiogenesis) [4]
O=C1CCC(=O)N(c2ccc(N3CCN(C4(c5ccc(-c6ccccc6)cc5)C(=O)NC(=O)NC4=O)CC3)cc2)C1 [example 5, 5-(1,1′-Biphenyl)-4-yl-5-{4-[4-(2,5-dioxopiperidin-1-yl)phenyl]piperazin-1-yl}pyrimidine-2,4,6(1H,3H,5H)-trione]	93	23	20	–	–	–	–
O=C(O)CCC(=O)Nc1ccc(N2CCN(C3(c4ccc(-c5ccccc5)cc4)C(=O)NC(=O)NC3=O)CC2)cc1 [example 2, N-{4-[4-(5-(1,1′-Biphenyl)-4-yl-2,4,6-trioxoperhydropyrimidin-5-yl)piperazin-1-yl]-phenyl}succinamic acid]	–	–	–	110	29	39	–
O=C1NC(=O)C(c2ccc(-c3ccccc3)cc2)(N2CCN(c3ccc([N+](=O)[O-])cc3)CC2)C(=O)N1 [Ro 28-2653, reference compound]	–	–	–	246	96	91	–
O=C(O)CCCC(=O)Nc1ccc(N2CCN(C3(c4ccc(-c5ccccc5)cc4)C(=O)NC(=O)NC3=O)CC2)cc1 [example 3, 4-{4-[4-(5-(1,1′-Biphenyl)-4-yl-2,4,6-trioxoperhydropyrimidin-5-yl)piperazin-1-yl]-phenylcarbamoyl}butyric acid]	–	–	–	98	26	49	–
O=C1NC(=O)C(c2ccc(-c3ccccc3)cc2)(N2CCN(c3ccc(N4C(=O)CCC4=O)cc3)CC2)C(=O)N1 [example 4, 5-(1,1′-Biphenyl)-4-yl-5-{4-[4-(2,5-dioxopyrrolidin-1-yl)phenyl]piperazin-1-yl}pyrimidine-2,4,6(1H,3H,5H)-trione]	–	–	–	75	13	21	severely inhibit the capillary vessel outgrowth
